In article PMC11802874, “The hypolipidemic effect of MI-883, the combined CAR agonist/ PXR antagonist, in diet-induced hypercholesterolemia model” (Nature Communications, 2025):
Several values for one entry are separate records, joined by “and”; a condition that tells them apart may be missing. Equal values may be shown once.

Experiments:
[1] = system: humanized PXR-CAR-CYP3A4/3A7 mice, liver; test: RT-qPCR and Western blotting of liver samples (HFD study); format: in vivo, mouse
Method: RT-qPCR expression studies were performed on liver samples from eleven humanized PXR-CAR-CYP3A4/3A7 mice that were fed a high-fat diet and treated with 5 mg/kg MI-883 three times per week for four weeks. Specific TaqMan probes were used, following the protocol described in Supplementary Table S3.
Western blotting experiments have been performed in BioRad instruments with BioRad precasted gels and reagents. Antibodies are listed in Supplementary Table S4. Densitometry has been done using ChemiDoc™ MP Imaging System and software (BioRad, Hercules, USA). Data are presented as relative protein expression to control samples. For protein expression quantification, areas in histograms have been calculated and related to a reference protein.

VD = VD (Homo sapiens, UniProt P11473); test: Luciferase reporter gene assay VD receptor, HepG2
VD, sequence (P11473 127-423 limits assumed): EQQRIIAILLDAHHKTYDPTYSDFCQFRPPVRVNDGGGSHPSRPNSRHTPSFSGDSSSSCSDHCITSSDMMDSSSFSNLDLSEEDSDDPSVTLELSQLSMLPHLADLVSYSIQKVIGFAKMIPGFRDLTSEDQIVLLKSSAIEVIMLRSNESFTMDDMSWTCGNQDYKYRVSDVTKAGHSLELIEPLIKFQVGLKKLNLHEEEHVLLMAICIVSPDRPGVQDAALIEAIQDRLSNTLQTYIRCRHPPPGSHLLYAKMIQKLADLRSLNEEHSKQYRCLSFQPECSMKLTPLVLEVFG
Description: The luciferase reporter gene assays for FXR, LXRα, LXRβ, THα, GRα, PPARα, PPARδ/β, PPARγ, AhR, VD, ERα, ERβ and mouse Car are described in our recent paper[19]
(§1) Gal4-LBD constructs of tested nuclear receptors have been used together with pGL4.31[luc2P/GAL4UAS/Hygro] luciferase reporter construct and pRL-TK Renilla expression vector (both from Promega, Hercules, USA) in HepG2 cells transfected with Lipofectamine 2000 or 3000 reagents. For GRα and FXR receptors, full-length expression vectors have been used with pGRE-luc or pFXRE-luc luciferase constructs. For the aryl hydrocarbon receptor (AhR), p1A1-luc construct was used with only pRL-TK vector for transfection normalization. A dual reporter assay (Promega, Hercules, USA) was used to analyze both firefly and Renilla luciferase activities.
(§2) Gal4-LBD constructs of tested nuclear receptors have been used together with pGL5-luc luciferase reporter construct and pRL-TK Renilla expression vector in HepG2 cells transfected with Lipofectamine 2000 or 3000 reagents. For GRα and FXR receptors, full-length expression vectors have been used with pGRE-luc or pFXRE-luc luciferase constructs. For the aryl hydrocarbon receptor (AhR), p1A1-luc construct was used with only pRL-TK vector for transfection normalization. […] Bars represent means±S.D. (n=3).

Human recombinant CYP3A4 = target: T1, Human recombinant CYP3A4 (Homo sapiens, UniProt P08684); test: CYP450-Glo CYP3A4 enzymatic activity assay; format: biochemical; conditions: for Inhibition assays, CYP3A4 activity (replicates): log[Agonist]
T1 construct: purchased Promega; host or cells: baculovirus-infected insect cells
T1 sequence (P08684 whole entry): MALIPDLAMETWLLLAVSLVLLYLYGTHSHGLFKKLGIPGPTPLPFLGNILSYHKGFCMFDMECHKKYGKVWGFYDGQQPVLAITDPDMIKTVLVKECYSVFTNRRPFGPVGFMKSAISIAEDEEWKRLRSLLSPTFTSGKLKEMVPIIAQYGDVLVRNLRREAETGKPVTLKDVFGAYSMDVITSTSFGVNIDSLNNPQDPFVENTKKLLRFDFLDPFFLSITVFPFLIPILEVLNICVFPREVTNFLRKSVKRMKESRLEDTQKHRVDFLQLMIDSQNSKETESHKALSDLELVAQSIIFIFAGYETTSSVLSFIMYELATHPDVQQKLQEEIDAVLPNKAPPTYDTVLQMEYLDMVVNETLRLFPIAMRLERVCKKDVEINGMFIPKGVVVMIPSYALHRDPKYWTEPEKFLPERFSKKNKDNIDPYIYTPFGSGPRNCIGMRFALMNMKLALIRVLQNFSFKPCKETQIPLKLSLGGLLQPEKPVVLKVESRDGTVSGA
Description: Data are presented as means±S.D. from three independent measurements.

[2] = system: primary human hepatocytes (PHH); test: RT-qPCR mRNA expression in 2D primary human hepatocytes; conditions: for CYP2B6 mRNA, RT-qPCR, PHH (Fig. 1g), replicates: ctrl = 1
Description: The cells were cultivated as 2D monolayers according to the manufacturer’s protocol.
RT-qPCR was used to examine gene expression in 2D and 3D PHH, HepaRG cells, or in mouse liver or intestine (ileum) samples as we have described before[60]–[62].

FXR = FXR (Homo sapiens, UniProt Q96RI1); test: Luciferase reporter gene assay FXR, HepG2
FXR, sequence (Q96RI1 whole entry): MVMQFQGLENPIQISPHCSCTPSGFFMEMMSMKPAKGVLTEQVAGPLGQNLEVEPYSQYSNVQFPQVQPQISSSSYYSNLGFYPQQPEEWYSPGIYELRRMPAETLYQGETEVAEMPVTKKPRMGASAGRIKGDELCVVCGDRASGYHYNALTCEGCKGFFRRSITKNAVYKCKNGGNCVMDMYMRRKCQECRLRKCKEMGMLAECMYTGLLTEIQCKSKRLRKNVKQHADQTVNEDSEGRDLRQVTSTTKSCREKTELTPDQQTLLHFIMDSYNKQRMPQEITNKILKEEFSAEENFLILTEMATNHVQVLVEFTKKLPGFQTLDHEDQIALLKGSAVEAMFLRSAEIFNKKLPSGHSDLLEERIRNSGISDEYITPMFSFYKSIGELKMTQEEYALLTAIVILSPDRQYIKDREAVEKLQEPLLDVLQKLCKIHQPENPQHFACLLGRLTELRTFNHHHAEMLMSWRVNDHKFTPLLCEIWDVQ
Description: as §1, §2

[3] = FigS13, individual animals, relative to control
[4] = HFD study, Western blotting, form not given
[5] = hPXR/hCAR/hCYP3A4/7 mice, relative to control, individual animals
[6] = MI-883 1 μM, 24 h, one value per donor
[7] = single agent 5 μM: MI-883, CITCO (5 μM) alone

For `NC(=O)c1cc(Cn2cc(-c3c(-c4ccc(Cl)cc4)nc4cc(F)ccn34)nn2)ccc1Cl` [MI-883, 2-chloro-5-((4-(2-(4-chlorophenyl)-7-fluoroimidazo[1,2-a]pyridin-3-yl)-1H-1,2,3-triazol-1-yl)methyl)benzamide], the “Acaca mRNA (RT-qPCR)” value [1, 3] was 0.62 and 1.24 and 0.73 and 1.27 and 0.85 and 0.6 and 0.7 and 0.51 and 0.8 and 0.28 and 0.34, the “Cd36 mRNA (RT-qPCR)” value [1, 3] was 0.88 and 1.19 and 0.76 and 1.31 and 0.8 and 0.72 and 1.01 and 0.19 and 1.11 and the “Cpt1a mRNA (RT-qPCR)” value [1, 3] was 1.05 and 0.92 and 2.34 and 0.85 and 1.37 and 0.77 and 1.27 and 0.96 and 1.08 and 0.81 and 0.88. For the same compound, the “FaSN mRNA (RT-qPCR)” value [1, 3] was 0.51 and 0.56 and 0.8 and 0.98 and 0.62 and 0.37 and 0.54 and 0.38 and 0.73 and 0.14 and 0.71, the “Plin2 mRNA (RT-qPCR)” value [1, 3] was 0.41 and 0.63 and 0.49 and 0.9 and 0.62 and 0.85 and 0.58 and 0.57 and 1 and 0.16 and 0.74 and the “Pnpla3 mRNA (RT-qPCR)” value [1, 3] was 1.72 and 1.4 and 0.48 and 1.37 and 0.96 and 0.84 and 0.35 and 0.25 and 1.49 and 0.03 and 1.94. For the same compound, the “Ppara mRNA (RT-qPCR)” value [1, 3] was 0.97 and 0.71 and 1.1 and 0.18 and 1.04, the “Scd1 mRNA (RT-qPCR)” value [1, 3] was 0.36 and 0.67 and 0.33 and 0.76 and 0.51 and 0.6 and 0.47 and 0.34 and 0.52 and 0.56 and the “liver Scd1 mRNA, RT-qPCR (n = 11)” value ([1]; HFD study, P = 0.0036) was “significantly downregulated”. The “liver Fasn and Plin2 mRNA, RT-qPCR” value ([1]; HFD study, P = 0.007 and P = 0.018) was “significantly downregulated”, the “liver Cyp7a1 and Cyp8b1 proteins” value ([1]; HFD study, Western blotting) was “significant upregulation” and the “liver Insig1 prot, individual samples” value ([1]; HFD study, Western blotting) was 3.8 and 3.3 and 3.1 and 2.9. For the same compound, the “liver Srebp1 120 kDa protein or mature nuclear fragments (mSrebp1)” value ([1]; HFD study, Western blotting) was “did not see any significant decrease”, the “liver Mrp4 prot, individual samples” value ([1]; HFD study, Western blotting, relative to control) was 1.89 and 1.6214 and 2.1487 and 1.571 and the “liver Srebp1/2 protein, lower block, first control/MI-883 pair” value [1, 4] was 1.8 and 1.6 and 1.7 and 1.1. The “liver Srebp1/2 protein, lower block, second control/MI-883 pair” value [1, 4] was 0.6 and 0.7 and 0.5, the “liver Srebp1/2 protein, upper block, second control/MI-883 pair” value [1, 4] was 1.7 and 1.5 and 1.1 and 1.2 and the “liver mature nuclear mSrepb2 protein” value ([1]; HFD study, effect is not significant) was “may decrease”. The “liver Cyp7a1 mRNA, RT-qPCR, individual animals” value ([1]; HFD study, relative to control) was 0.7586 and 0.4023 and 0.5977 and 0.2759 and 0.5402 and 0.954 and 0.4943 and 0.9885 and 0.5172, the “liver Insig1 mRNA, RT-qPCR, individual animals” value ([1]; HFD study, relative to control) was 1.68 and 2.22 and 0.72 and 0.43 and 1.13 and 1.06 and 1.18 and 2.34 and 1.52 and 1.27 and 0.68 and the “liver Mrp4 mRNA, RT-qPCR, individual animals” value ([1]; HFD study, relative to control) was 4.091 and 6.648 and 4.182 and 4.443 and 4.045 and 2.545 and 4.341 and 10.0455 and 5.239 and 3.409. For the same compound, the “liver Srebf1 mRNA, RT-qPCR, individual animals” value ([1]; HFD study, relative to control) was 0.7619 and 0.9619 and 0.5619 and 0.6 and 1.105 and 0.7714 and 0.7143 and 0.8857 and 0.819 and 0.4571, the “liver Sult2a1 mRNA, RT-qPCR, individual animals” value ([1]; HFD study, relative to control) was 4.077 and 3.288 and 1.404 and 2.538 and 0.8846 and 1.615 and the “liver Ugt1a1 mRNA, RT-qPCR, individual animals” value ([1]; HFD study, relative to control) was 1.852 and 2.477 and 1.455 and 1.284 and 1 and 1.58 and 1.148 and 2.057 and 2 and 2.17 and 0.8977. The “liver Ugt2b34 mRNA, RT-qPCR, individual animals” value ([1]; HFD study, relative to control) was 1.412 and 2.106 and 2.063 and 1.118 and 1.379 and 0.7926, the “liver murine Gadd45b mRNA and Meg3 lncRNA” value ([1]; PXR-CAR-CYP3A4/3A7 mice (Fig. 7a)) was “statistically significant upregulation” and the “Bcl2 expression (Fig. 7a)” value [1, 5] was 0.87 and 0.95 and 0.93 and 1.25 and 1.35 and 0.29. The “Cdkn1a expression (Fig. 7a)” value [1, 5] was 1.39 and 0.41 and 0.43 and 0.27 and 1.57 and 0.35, the “Foxm1 expression (Fig. 7a)” value [1, 5] was 2.03 and 1.26 and 1.41 and 1.28 and 1.37 and 0.42 and the “Gadd45b expression (Fig. 7a)” value [1, 5] was 2.07 and 7.83 and 4.06 and 7.82 and 5.69 and 2.44. The “Mcl1 expression (Fig. 7a)” value [1, 5] was 0.58 and 1.09 and 0.6 and 1.16 and 0.84 and 0.26, the “Meg3 expression (Fig. 7a)” value [1, 5] was 2.24 and 7.88 and 3.05 and 3.57 and 2.39 and the “Mki67 expression (Fig. 7a)” value [1, 5] was 1.7 and 1.18 and 1.43 and 1.11 and 1.31 and 0.71. For the same compound, the “Pcna expression (Fig. 7a)” value [1, 5] was 0.78 and 1.24 and 0.66 and 0.89 and 0.57 and 0.36, the “NRs assays: VDR (relative to ctrl, replicates)” value (VD) was 0.7 and 0.81 and 0.9 and the “inhibition of CYP3A4 activity” value (Human recombinant CYP3A4) was “weak inhibitor”. For the same compound, the “Inhibition assays, CYP3A4 activity (replicates)” value (shortened to “Inhibition assays”) (Human recombinant CYP3A4; M 0) was 106 and 134, the “Inhibition assays” value (Human recombinant CYP3A4; M 0.5) was 69 and 79 and 81 and the “Inhibition assays” value (Human recombinant CYP3A4; M 1) was 66 and 67 and 61. The “Inhibition assays” value (Human recombinant CYP3A4; M -0.5) was 128 and 118 and 132, the “Inhibition assays” value (Human recombinant CYP3A4; M -1) was 126 and 125 and 123 and the “Inhibition assays” value (Human recombinant CYP3A4; M -2) was 89 and 124. For the same compound, the “Inhibition assays” value (Human recombinant CYP3A4; M -2.5) was 100, the “Inhibition assays” value (Human recombinant CYP3A4; M -3) was 100 and the “Inhibition assays” value (Human recombinant CYP3A4; M -3.5) was 100. For the same compound, the “Inhibition assays” value (Human recombinant CYP3A4; M -4) was 100, the “Inhibition assays” value (Human recombinant CYP3A4; M -4.5) was 100 and the “CYP2B6 mRNA, RT-qPCR, PHH (Fig. 1g), replicates” value ([2]; 1 mM) was 6.40 and 7.90 and 6.20. For the same compound, the “CYP2B6 mRNA, RT-qPCR, PHH (Fig. 1g), replicates” value ([2]; 5mM) was 11.50 and 14.10 and 10.70, the “CYP2B6 mRNA in PHH 2 donors (Fig. 3c)” value ([2]; MI-883 1 μM + CITCO (5 μM)) was 18.7857 and 11.1982 and the “CYP3A4 mRNA in PHH 2 donors (Fig. 3c)” value ([2]; MI-883 1 μM + CITCO (5 μM)) was 1.145 and 0.8997. The “CYP2B6 mRNA in PHH 2 donors (Fig. 3c)” value ([2]; MI-883 1 μM + Rif (10 μM)) was 16.0019 and 18.4588, the “CYP2B6 mRNA in PHH 2 donors (Fig. 3c)” value [2, 6] was 9.7833 and 10.0129 and the “CYP3A4 mRNA in PHH 2 donors (Fig. 3c)” value [2, 6] was 1.152 and 1.035. For the same compound, the “CYP2B6 mRNA in PHH 2 donors (Fig. 3c)” value ([2]; MI-883 5 μM + CITCO (5 μM)) was 4.985 and 8.159, the “CYP2B6 mRNA in PHH 2 donors (Fig. 3c)” value ([2]; MI-883 5 μM + Rif (10 μM)) was 9.78 and 14.5843 and the “CYP2B6 mRNA in PHH 2 donors (Fig. 3c)” value ([2]; MI-883 10 μM + CITCO (5 μM)) was 1.856 and 2.089. The “CYP3A4 mRNA in PHH 2 donors (Fig. 3c)” value ([2]; MI-883 10 μM + CITCO (5 μM)) was 0.35 and 0.4582, the “CYP2B6 mRNA in PHH 2 donors (Fig. 3c)” value ([2]; MI-883 10 μM + Rif (10 μM)) was 2.674 and 5.134 and the “CYP3A4 mRNA in PHH 2 donors (Fig. 3c)” value ([2]; MI-883 10 μM + Rif (10 μM)) was 2.14 and 3.421. The “CYP2B6 mRNA in PHH 2 donors (Fig. 3c)” value [2, 7] was 17.2158 and 12.1241, the “CYP3A4 mRNA in PHH 2 donors (Fig. 3c)” value [2, 7] was 0.6604 and 0.7133 and the “CYP3A4 mRNA in PHH 2 donors (Fig. 3c)” value ([2]; single agent 10 μM: MI-883, Rif (10 μM) alone) was 0.3215 and 0.4561. The “NRs assays: FXR (relative to ctrl, replicates)” value (FXR) was 0.85 and 0.88 and 1.01.
